Results on 1 compound are retold here after patent publication US11517578B1, “Topical formulations containing erythritol and methods of treating skin conditions” (InnoMed Technologies, Inc., priority 2021, dated 2022).

The test system of the assay is facial acne. The experiment in a line: Topical treatment of facial acne in patients (case examples 1-3). The class given is in vivo, human. The conditions noted are these: patient history: OTC benzoyl peroxide gels and washes tried before the formulation. The source says:
In this example, a person visits a healthcare professional and complains of facial acne that has been persistent for the past three years. They describe sporadic facial breakouts that began gradually, varied in severity and never completely cleared. They explain that the breakouts contribute to feelings of low self-esteem.
The healthcare professional administers the formulation of erythritol and zinc to the patient. As detailed in Table 2, the formulation includes erythritol (3.75%) and zinc chloride (1.25%). The formulation allows for effective transdermal administration of the zinc chloride-erythritol mixture which can prevent or ameliorate bacterial growth at or near skin pores and hair follicles.
The patient is also advised to continue daily use of an OTC facial wash. After washing and rinsing the face, the patient applies the formulation to the entire face. After five to ten minutes, the face can be rinsed with water. The routine is repeated each day (i.e., twice per day). Within ten days, the acne is resolved by about 80% (i.e., about 80% of the acne is gone). The comedones, papules and pustules are less apparent and only visible at close proximity. The patient resumes twice daily use of the formulation. Within two weeks the signs/symptoms of acne are resolved by about 95%. The patient has a clear complexion. […]

SMILES strings stand for the structures. Entries after “also recorded” stand apart in the source; their conditions may differ.

Take `O=C(OOC(=O)c1ccccc1)c1ccccc1` [benzoyl peroxide]: the “improvement of facial acne” value is recorded as “without improvement; also recorded: minimal or no significant improvement”.
